Data set [1] has as its system edema in hindpads of rats. Put plainly: rat pad edema test (HILLEBRECHT, Carragenine). Type of data set: in vivo. As to conditions: 3 hours. As for the experimental part:
The antiphlogistic properties are determined in the rat pad edema test according to HILLEBRECHT (J. HILLEBRECHT, Arzneim. Forsch. 1954, vol. 4, p. 607). In this test, the formation of an edema is caused in one of the hindpads of rats weighing each 200 to 250 grams, by subplantar injection of Carragenine (0.5% in 0.9% NaCl solution) in an amount of 0.1 ml. solution per each pad. After administration of the test compound in an amount which in general should not be larger than a volume of 10 ml. per kg. body weight, the volume of the pad is determined in an overflow. 3 hours after administration of the test compound the final volume is determined. The test is carried out with 10 test animals and 10 control animals of one sex per each dose and is repeated with the same number of animals of the other sex. For evaluation purposes the percent inhibition of edema formation is determined over the control group.

For data set [2], the system named is granuloma in the connective tissue. The data set can be described thus: Granuloma test (cotton-pellet-test) according to R. MEIER. Type of data set: in vivo, rat. The source says: In this test, cotton pellets impregnated with crotone oil are implanted subcutaneously into the test animals (rats) which impregnated cotton pellets cause the formation of granuloma in the connective tissue. After killing of the test animals, the granuloma are separated and recovered and are weighed as wet or dry tissue. The anti-proliferatic activity of an antiphlogistic agent is expressed in a lower granuloma weight in comparison to untreated control animals.

Data set [3] concerns arthritis caused by Freud adjuvans (pad volume). The data set can be described thus: Adjunct-Arthritis (C. M. PEARSON). The class given is in vivo, rat (wistar). As for the experimental part:
There are used 10 wistar rats each weighing 120 to 150 g. per each dose. The same number of animals is used as control group. An arthritis is caused by subplantar injection of 0.5 ml. of Freud adjuvans. The test duration is 17 days. At the beginning of the test the volume of the pads of all for legs is determined as starting value. The volume is further determined on the 8th, 14th and 17th day of the test. In the evaluation, the difference between the pad volume at the beginning and at the end of the test is determined both in the test group as well as in the control group. The test result, i.e. the inhibition of the growth of the pad volume is expressed in percent.

The test system is the same in data set [4]. The data set can be described thus: Adjunct-Arthritis (C. M. PEARSON). Type of data set: in vivo, rat (wistar). As to conditions: 7th day p.i.
For data set [5], the system named is ulcus formation of the stomach. Put plainly: Ulcus test. The class given is in vivo, rat (wistar). The settings on record: 3.5 hours. On the procedure: The determination of ulcus formation is carried out according to W. J. R. WHITTLE, Brit.J.Pharmacology 1975, vol. 55, pgs. 242 to 243; L. MARIANI, Europ. J. Toxicol. Eviron, 1975, vol. 8, pgs. 335 to 339; R. MENGUY and L. DESBAILLETS, Proc.Soc.Exp.Bio., vol. 125, p. 1108. In this test, 10 female and 10 male wistar rats are used each weighing 120 to 150 g. and which had been fed only with […] for 2 days and were kept thereafter without feeding for 16 hours. The formation of a bleeding ulcus of the stomach was provocated by oral application of the compound to be tested. 3.5 hours after administration the test animals were killed, the stomach was separated, opened along the large curvature and fixed to a polystyrol plate. There is determined the number and size of average ulcus formation both in the test group and in the control group.

Setting [6] is: 0.1 mg./kg. p.o., 14th day p.i.
[7] abbreviates: 0.1 mg./kg. p.o., 17th day p.i.

As to `COc1ccc2c(c1)c(CC(=O)O)c(C)n2C(=O)c1ccc(Cl)cc1` [Indometacin, reference compound], the “Edema inhibition, inhibitory effect” value is -9% in data set [1] (1.0 mg./kg. i.m.); -23% in data set [1] (3 mg./kg. i.m.); -26% in data set [1] (3.8 mg./kg. p.o.); -45% in data set [1] (5.6 mg./kg. p.o.); -57% in data set [1] (8.3 mg./kg. p.o.); -33% in data set [1] (10 mg./kg. i.m.). The “Decrease of granuloma weight” value in data set [2] (1 mg./kg. p.o.) is reported as -21%; in data set [2] (3.2 mg./kg. p.o.), -7%; in data set [2] (5.6 mg./kg. p.o.) it was -6%. Moreover, the “inhibitory effect (growth of pad volume)” value in data set [3] (setting [6]) is -25%; in data set [3] (setting [7]), -37%; in data set [3] (1 mg./kg. p.o., 14th day p.i.), -40%; in data set [3] (1 mg./kg. p.o., 17th day p.i.), -40%; in data set [4] (0.1 mg./kg. p.o.) it was -32%; in data set [4] (1 mg./kg. p.o.), -50%. The “lethality given in place of inhibitory effect” value was “lethal” in data set [3] (10 mg./kg. p.o., 14th day p.i.); “lethal” in data set [3] (10 mg./kg. p.o., 17th day p.i.); “lethal” in data set [4] (10 mg./kg. p.o.). Moreover, the 50% lethal dose (LD50) in “Toxicity in rats, p.o.” (rat, in vivo, po) was 38 mg/kg; in the data set “Toxicity in mice, p.o.” (mouse, in vivo, po) it was 19 mg/kg. For the same compound, the mortality in the data set “Toxicity in rats, p.o.” (rat, in vivo, po, 38 mg/kg) amounted to 50%; in the data set “Toxicity in mice, p.o.” (mouse, in vivo, po, 19 mg/kg) it was 50%.
`O=c1c2ccccc2[se]n1-c1ccccc1` [2-Phenyl-1.2-benzisoselenazol-3(2H)-one, 2-phenyl-1.2-benzisoselenazol-3(2H)-one]: the “Edema inhibition, inhibitory effect” value in data set [1] (0.1 mg./kg. i.m.) is reported as -23%; in data set [1] (0.1 mg./kg. p.o.) it was -1%; in data set [1] (1.0 mg./kg. i.m.), -62%; in data set [1] (1.0 mg./kg. p.o.), -57%; in data set [1] (10 mg./kg. i.m.) it was -35%; in data set [1] (10 mg./kg. p.o.), -40%. For the same compound, the “Decrease of granuloma weight” value is on record as -22% in data set [2] (0.1 mg./kg. p.o.), -21% in data set [2] (1 mg./kg. p.o.) and -20% in data set [2] (10 mg./kg. p.o.). In addition, the “inhibitory effect (growth of pad volume)” value is -10% in data set [3] (setting [6]); -13% in data set [3] (setting [7]); -36% in data set [3] (1 mg./kg. p.o., 14th day p.i.); -33% in data set [3] (1 mg./kg. p.o., 17th day p.i.); -22% in data set [3] (10 mg./kg. p.o., 14th day p.i.); -24% in data set [3] (10 mg./kg. p.o., 17th day p.i.). The entries for the “inhibitory effect (growth of pad volume)” value in data set [4] (0.1 mg./kg. p.o.), in data set [4] (1 mg./kg. p.o.) and in data set [4] (10 mg./kg. p.o.) were -22%, -46% and -30%, respectively. Moreover, the toxicity effects result in data set [3] (at higher doses, p.o.) is “no toxicity effects occur”. Further, the “Ulcus formation, effectiveness” value in data set [5] (1 mg./kg. p.o.), in data set [5] (10 mg./kg. p.o.) and in data set [5] (100 mg./kg. p.o.) was 0 in each case. Further, the mortality in the data set “Toxicity in rats, p.o.” (rat, in vivo, po, 4600 mg/kg) came out at 0%; in “Toxicity in mice, p.o.” (mouse, in vivo, po, 2150 mg/kg), 0%. For the same compound, the “dose at lethality 0%” value is 4,600 mg./kg in the data set “Toxicity in rats, p.o.” (rats, p.o.) and > 2,150 mg./Kg in “Toxicity in mice, p.o.” (mice, p.o.).

Usually LD50 stands for the dose expected to kill half of the subjects tested. High values mean a less toxic substance, low ones a more toxic substance. In general, mortality refers to the share of the test organisms that died. Low readings indicate a weak lethal effect, high ones a strong lethal effect.

Source of the values: US4352799A, “2-Phenyl-1,2-benzisoselenazol-3(2H)-one containing pharmaceutical preparations and process for the treatment of rheumatic diseases” (A. Nattermann & Cie GmbH, priority 1980, dated 1982).
